System: human embryonic stem cells
Assay: Dose response of activin A and GDF-8, SOX17 intensity (Example 11, Table 11)
Assay type: cell-based
Details: Wnt3a day 1, three days
Protocol: Stock cultures of human embryonic stem cells (1-11 human embryonic stem cell line) were maintained in an undifferentiated, pluripotent state on reduced growth factor […]-coated dishes in MEF conditioned medium with passage on average every four days. Passage was performed by exposing cell cultures to a solution of 1 mg/ml dispase (Invitrogen, Cat #: 17105-041) for 5 to 7 minutes at 37° C. followed by rinsing the monolayer with MEF conditioned culture medium and gentle scraping to recover cell clusters. Clusters were centrifuged at low speed to collect a cell pellet and remove residual dispase. Cell clusters were split at a 1:3 or 1:4 ratio for routine maintenance culture or a 1:1 ratio for immediate assay. All human embryonic stem cell lines were maintained at passage numbers less than 50 and routinely evaluated for normal karyotypic phenotype and for absence of mycoplasma contamination.
Cell clusters used in the assay were evenly resuspended in MEF conditioned medium supplemented with 8 ng/ml bFGF and seeded onto reduced growth factor […]™-coated 96-well Packard VIEWPLATES (PerkinElmer; Cat #6005182) in volumes of 100 μl/well. MEF conditioned medium supplemented with 8 ng/ml bFGF was used for initial plating and expansion. Daily feeding was conducted by aspirating spent culture medium from each well and replacing with an equal volume of fresh medium. Plates were maintained at 37° C., 5% CO2 in a humidified box throughout the duration of assay.
The assay was initiated by aspirating the culture medium from each well and adding back an aliquot (100 μl) of test medium. Test conditions were performed in quadruplicate over a total three-day assay period, feeding on day 1 and day 2 by aspirating and replacing the medium from each well with fresh test medium. Two 12-channel polypropylene basins (Argos technologies, Inc, Cat #: B3135) were used to make the test media containing different concentrations of Activin A (PeproTech; Cat #120-14) or GDF-8 (R&D Systems, Cat #788-G8). Channels numbered 2 through 12 of each basin contained 1 ml assay medium composed of RPMI-1640 medium (Invitrogen; Cat #: 22400) supplemented with 2% Albumin Bovine Fraction V, Fatty Acid Free (FAF BSA) (MP Biomedicals, Inc; Cat #152401) and 8 ng/ml bFGF (PeproTech Inc.; Cat #: 100-18B), and with 20 ng/ml Wnt3a (R&D Systems; Cat #1324-WN/CF) added on day 1, omitted on day 2 and 3. Channel number 1 of each basin contained 1600 ng/ml Activin A or 1600 ng/ml GDF-8, diluted into the same assay medium. One ml of medium was transferred from channel number 1 to channel number 2 and mixed well. A fresh pipette tip was used to transfer one ml of medium from channel number 2 to channel number 3, followed by thorough mixing. The same procedure was repeated in sequence through channel number 11 for each respective basin. Channel number 12 of each basin contained medium without Activin A or GDF-8. By doing this, a series of two-fold test dilutions was created, containing Activin A or GDF-8 at concentrations ranging from 1.6 ng/ml to 1600 ng/ml, for addition to the respective assay wells.
At the conclusion of three days of culture, assay plates were washed once with PBS (Invitrogen; Cat #14190), fixed with 4% paraformaldehyde (Alexis Biochemical; Cat #ALX-350-011) at room temperature for 20 minutes, then washed three times with PBS and permeabilized with 0.5% Triton X-100 (Sigma; Cat #T8760-2) for 20 minutes at room temperature. Cells were washed again three times with PBS and blocked with 4% chicken serum (Invitrogen; Cat #16110082) in PBS for 30 minutes at room temperature. Primary antibody (goat anti-human SOX17; R&D Systems; Cat #AF1924) was diluted 1:100 in 4% chicken serum and added to each well for two hours at room temperature. After washing three times with PBS, Alexa Fluor 488 conjugated secondary antibody (chicken anti-goat IgG; Invitrogen; Cat #A21467) diluted 1:200 in PBS was added to each well. […]

Activin A: recombinant human activin A (PeproTech), TGF-beta family member
Normalized SOX17 Intensity, Average (1.56 ng/ml growth factor): 0.10%
Normalized SOX17 Intensity, Average (3.13 ng/ml growth factor): 3.00%
Normalized SOX17 Intensity, Average (6.25 ng/ml growth factor): 18.40%
Normalized SOX17 Intensity, Average (12.50 ng/ml growth factor): 50.90%
Normalized SOX17 Intensity, Average (25 ng/ml growth factor): 73.10%
Normalized SOX17 Intensity, Average (50 ng/ml growth factor): 85.20%
Normalized SOX17 Intensity, Average (100 ng/ml growth factor): 90.70%
Normalized SOX17 Intensity, Average (200 ng/ml growth factor): 100.00%
Normalized SOX17 Intensity, Average (400 ng/ml growth factor): 100.00%
Normalized SOX17 Intensity, Average (800 ng/ml growth factor): 100.00%
Normalized SOX17 Intensity, Average (1600 ng/ml growth factor): 100.00%
EC50 (SOX17 intensity, GraphPad Prism): 0.0139 µg/mL

GDF-8: growth factor GDF-8, also known as myostatin, member of the TGF-β family
Normalized SOX17 Intensity, Average (1.56 ng/ml growth factor): 0.00%
Normalized SOX17 Intensity, Average (3.13 ng/ml growth factor): 0.10%
Normalized SOX17 Intensity, Average (6.25 ng/ml growth factor): 0.70%
Normalized SOX17 Intensity, Average (12.50 ng/ml growth factor): 0.90%
Normalized SOX17 Intensity, Average (25 ng/ml growth factor): 5.10%
Normalized SOX17 Intensity, Average (50 ng/ml growth factor): 17.60%
Normalized SOX17 Intensity, Average (100 ng/ml growth factor): 32.70%
Normalized SOX17 Intensity, Average (200 ng/ml growth factor): 51.30%
Normalized SOX17 Intensity, Average (400 ng/ml growth factor): 72.20%
Normalized SOX17 Intensity, Average (800 ng/ml growth factor): 84.90%
Normalized SOX17 Intensity, Average (1600 ng/ml growth factor): 100.00%
EC50 (SOX17 intensity, GraphPad Prism): 0.1848 µg/mL
